Results reported in patent US20180250270A1, “MUSCARINIC COMBINATION AND ITS USE FOR COMBATING HYPOCHOLINERGIC DISORDERS OF THE CENTRAL NERVOUS SYSTEM” (Chase Pharmaceuticals Corporation, priority 2015, published 2018).
Read-outs that look alike come from different tables or passages of the source.

Columns and labels:
muscarinic receptors = conditions: cited from earlier work
[1] = primate study; cited from earlier work
[2] = test system: peripheral cholinergic receptors; conditions: monkeys; cited from earlier work
[3] = test system: peripheral cholinergic receptors; conditions: rats; cited from earlier work
[4] = clinical trials for Alzheimer disease; cited from earlier work
[5] = 6-month double-blind, placebo-controlled, parallel group trial of xanomeline in patients with Alzheimer disease; assay type: in vivo, human; conditions: in view of Mirza et al 2003; i.e. 225 mg/day
Source text: A close analog of tazomeline, the 3-(4-hexyloxy-1,2,5-thiadiazol-3-yl)-1-methyl-5,6-dihydro-2H-pyridine known as xanomeline and described in U.S. Pat. No. 5,043,345, the disclosure of which is incorporated herein by reference in its entirety, has been disclosed as a muscarinic acetylcholine receptor agonist with reasonable selectivity for the M1 and M4 subtypes. The efficacy of xanomeline, which stimulates muscarinic receptors in the brain and in the periphery was studied in patients with Alzheimer disease in a 6-month double-blind, placebo-controlled, parallel group trial. […] Such side effects prevented the use of doses of xanomeline that could achieve maximum anti-dementia efficacy and reflect stimulation of cholinergic receptors outside the brain.
Dose-limiting adverse events attending the use of drugs that stimulate cholinergic transmission, such as xanomeline, appear to primarily reflect the excessive stimulation of peripheral cholinergic receptors, especially those of the muscarinic type (mAChRs), such that in both healthy volunteers and Alzheimer's patients many of these side effects have been reported for xanomeline; in the patient population this led to a discontinuation rate higher than 50% while the effects on cognition were not robust and mainly seen at the highest doses tested (Mirza 2003).

[6] = cited from earlier work
[7] = cited from earlier work; remark: listed apart in the source

## CCCCSc1nsnc1[C@H]1CN2CCC[C@H]1C2 [BuTAC, (5R,6R)-6-(3-butylthio-1,2,5-thiadiazol-4-yl)-1-azabicyclo[3.2.1]octane]
Muscarinic receptors
  affinity for muscarinic receptors: high affinity
[1]
  vomiting: induced vomiting

## CO/N=C/C1=CCCN(C)C1 [milameline, (E)-N-methoxy-1-(1-methyl-1,2,5,6-tetrahydropyridin-3-yl)methanimine]
[2]
  doses producing central cholinergic action relative to peripheral action: at doses slightly higher than those stimulating peripheral cholinergic receptors
[3]
  doses producing central cholinergic action relative to peripheral action: at doses slightly higher than those stimulating peripheral cholinergic receptors
[4]
  maximum tolerated dose: 2 mg four times per day

## CCCCCCOc1nsnc1C1=CCCN(C)C1 [xanomeline, 3-(4-hexyloxy-1,2,5-thiadiazol-3-yl)-1-methyl-5,6-dihydro-2H-pyridine]
[5]
  maximum tolerated dose as considered in the context of the invention: 75 mg three times per day
[6]; defined by Sramek et al.
  MTD: 100 mg three times a day
[6]; human, in vivo
  minimum intolerated dose: 115 mg three times a day
[7]; 75 mg xanomeline orally three times daily, mainly adverse events, predominantly gastrointestinal
  patients who discontinued treatment: 59%
[7]; 6-month trial
  cognitive and behavioral symptoms of Alzheimer disease compared to placebo: significantly improve
[7]; Alzheimer's patient population (Mirza 2003)
  discontinuation rate: higher than 50%
[7]; bradycardia, gastro-intestinal distress, excessive salivation, sweating
  side effects: dose-dependent unacceptable side effects
